Laboratory results reported in PubChem BioAssay AID248 (DTP/NCI, 2004).
Values joined by “and” are separate entries in the source; they are usually repeats but may differ in a detail not shown here. Equal values may be shown once. Toxic doses and inconclusive results are not listed. No stated cut-off is given here; in the data, active means T/C of 150% or more; inactive means T/C below 125%.

System: L1210 leukemia ip in BDF1 mice, survival T/C
Assay: NCI In Vivo Anticancer Drug Screen. Data for tumor model L1210 Leukemia (intraperitoneal) in B6D2F1 (BDF1) mice
Settings: endpoint: mean survival time, higher = longer survival
In short: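 Tumor cells were implanted, animals were treated, and survival was followed. The result divides the treated measurement by the vehicle-control measurement.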

[1] = dose: 100.0 mg/kg/injection, schedule: Q04DX003 (ip), vehicle: saline
[2] = dose: 100.0 mg/kg/injection, schedule: Q04DX003 (ip), vehicle: saline with Tween-80
[3] = dose: 200.0 mg/kg/injection, schedule: Q04DX003 (ip), vehicle: saline with Tween-80
[4] = dose: 400.0 mg/kg/injection, schedule: Q04DX003 (ip), vehicle: saline with Tween-80

Measured: T/C

CN(C)CCCN1c2ccccc2Sc2ccc(Cl)cc21
inactive: dose: 0.77 mg/kg/injection, schedule: Q03HX024 (ip), vehicle: saline 104 % of control | dose: 0.78 mg/kg/injection, schedule: Q04DX024 (oral), vehicle: saline 98 % of control | dose: 1.55 mg/kg/injection, schedule: Q03HX024 (ip), vehicle: saline 109 % of control | dose: 1.56 mg/kg/injection, schedule: Q04DX003 (ip), vehicle: saline 101 % of control | dose: 1.56 mg/kg/injection, schedule: Q04DX024 (oral), vehicle: saline 90 % of control | dose: 2.0 mg/kg/injection, schedule: Q01DX009 (ip), vehicle: saline 95 % of control and 113 % of control | dose: 2.5 mg/kg/injection, schedule: Q01DX015 (ip), vehicle: saline 103 % of control | dose: 3.1 mg/kg/injection, schedule: Q03HX024 (ip), vehicle: saline 102 % of control | dose: 3.12 mg/kg/injection, schedule: Q01DX009 (ip), vehicle: saline 111 % of control | dose: 3.12 mg/kg/injection, schedule: Q04DX003 (ip), vehicle: saline 101 % of control | dose: 3.12 mg/kg/injection, schedule: Q04DX024 (oral), vehicle: saline 104 % of control | dose: 4.0 mg/kg/injection, schedule: Q01DX009 (ip), vehicle: saline 93 % of control and 106 % of control | dose: 5.0 mg/kg/injection, schedule: Q01DX015 (ip), vehicle: saline 105 % of control | dose: 6.2 mg/kg/injection, schedule: Q03HX024 (ip), vehicle: saline 109 % of control | dose: 6.25 mg/kg/injection, schedule: Q04DX003 (ip), vehicle: saline 102 % of control and 103 % of control | dose: 8.0 mg/kg/injection, schedule: Q01DX009 (ip), vehicle: saline 106 % of control and 120 % of control | dose: 8.0 mg/kg/injection, schedule: Q01DX015 (ip), vehicle: saline 104 % of control | dose: 10.0 mg/kg/injection, schedule: Q01DX009 (ip), vehicle: saline 111 % of control | dose: 10.0 mg/kg/injection, schedule: Q01DX015 (ip), vehicle: saline 105 % of control | dose: 12.0 mg/kg/injection, schedule: Q01DX015 (ip), vehicle: saline 115 % of control | dose: 12.4 mg/kg/injection, schedule: Q03HX024 (ip), vehicle: saline 116 % of control | dose: 12.5 mg/kg/injection, schedule: Q01DX001 (ip), vehicle: saline 94 % of control | dose: 12.5 mg/kg/injection, schedule: Q01DX009 (ip), vehicle: saline 110 % of control and 102 % of control | dose: 12.5 mg/kg/injection, schedule: Q04DX003 (ip), vehicle: saline 109 % of control [middle of 4 runs] | dose: 16.0 mg/kg/injection, schedule: Q01DX009 (ip), vehicle: saline 87 % of control | dose: 18.0 mg/kg/injection, schedule: Q01DX015 (ip), vehicle: saline 121 % of control | dose: 18.75 mg/kg/injection, schedule: Q01DX001 (ip), vehicle: saline 113 % of control and 123 % of control | dose: 18.75 mg/kg/injection, schedule: Q01DX009 (ip), vehicle: saline 101 % of control | dose: 20.0 mg/kg/injection, schedule: Q01DX009 (ip), vehicle: saline 108 % of control | dose: 20.0 mg/kg/injection, schedule: Q01DX Z (ip), vehicle: methylcellulose (MC) 108 % of control | dose: 20.0 mg/kg/injection, schedule: Q04DX003 (ip), vehicle: saline 115 % of control | dose: 25.0 mg/kg/injection, schedule: Q01DX001 (ip), vehicle: saline 101 % of control | dose: 25.0 mg/kg/injection, schedule: Q01DX009 (ip), vehicle: saline 105 % of control | dose: 25.0 mg/kg/injection, schedule: Q04DX003 (ip), vehicle: saline 109 % of control [middle of 4 runs] | dose: 26.0 mg/kg/injection, schedule: Q04DX003 (ip), vehicle: saline 121 % of control | dose: 27.0 mg/kg/injection, schedule: Q01DX015 (ip), vehicle: saline 106 % of control | dose: 30.0 mg/kg/injection, schedule: Q01DX Z (ip), vehicle: methylcellulose (MC) 117 % of control | dose: 37.5 mg/kg/injection, schedule: Q01DX001 (ip), vehicle: saline 120 % of control | dose: 37.5 mg/kg/injection, schedule: Q01DX009 (ip), vehicle: saline 120 % of control | dose: 40.0 mg/kg/injection, schedule: Q01DX015 (ip), vehicle: saline 112 % of control | dose: 40.0 mg/kg/injection, schedule: Q04DX003 (ip), vehicle: saline 106 % of control | dose: 45.0 mg/kg/injection, schedule: Q01DX Z (ip), vehicle: methylcellulose (MC) 100 % of control | dose: 50.0 mg/kg/injection, schedule: Q01DX001 (ip), vehicle: saline 108 % of control | dose: 50.0 mg/kg/injection, schedule: Q01DX009 (ip), vehicle: saline 121 % of control | dose: 50.0 mg/kg/injection, schedule: Q04DX003 (ip), vehicle: saline 101 % of control and 113 % of control | dose: 60.0 mg/kg/injection, schedule: Q01DX015 (ip), vehicle: saline 117 % of control | dose: 67.5 mg/kg/injection, schedule: Q01DX Z (ip), vehicle: methylcellulose (MC) 99 % of control | dose: 75.0 mg/kg/injection, schedule: Q04DX003 (ip), vehicle: saline 116 % of control | dose: 90.0 mg/kg/injection, schedule: Q01DX015 (ip), vehicle: saline 104 % of control | dose: 100.0 mg/kg/injection, schedule: Q01DX009 (ip), vehicle: saline 89 % of control | [1] 99 % of control

Cc1cc(=O)n(-c2ccccc2)n1C
inactive: [1] 104 % of control | dose: 200.0 mg/kg/injection, schedule: Q04DX003 (ip), vehicle: saline 106 % of control | dose: 400.0 mg/kg/injection, schedule: Q04DX003 (ip), vehicle: saline 106 % of control

O=c1c2ccccc2oc2ccccc12
inactive: dose: 100.0 mg/kg/injection, schedule: Q01DX001 (ip), vehicle: saline with Tween-80 102 % of control | [2] 96 % of control | dose: 200.0 mg/kg/injection, schedule: Q01DX001 (ip), vehicle: saline with Tween-80 102 % of control | [3] 97 % of control | dose: 400.0 mg/kg/injection, schedule: Q01DX001 (ip), vehicle: saline with Tween-80 102 % of control

Cn1cc(Cc2ccccc2)c(=O)n(C)c1=O
inactive: [2] 100 % of control | [3] 100 % of control | [4] 106 % of control

COc1cc2c(c(OC)c1OC)-c1ccc(SCC3CCC4CC3C4(C)C)c(=O)cc1C(NC(C)=O)CC2 (configuration not stated)
inactive: dose: 12.5 mg/kg/injection, schedule: Q04DX002 (ip), vehicle: saline 100 % of control | dose: 25.0 mg/kg/injection, schedule: Q04DX002 (ip), vehicle: saline 95 % of control | dose: 50.0 mg/kg/injection, schedule: Q04DX002 (ip), vehicle: saline 106 % of control

COc1cc(C)c2c(OC)ccc(OC)c2n1
inactive: dose: 100.0 mg/kg/injection, schedule: Q01DX001 (ip), vehicle: saline 94 % of control | dose: 200.0 mg/kg/injection, schedule: Q01DX001 (ip), vehicle: saline 97 % of control | dose: 400.0 mg/kg/injection, schedule: Q01DX001 (ip), vehicle: saline 103 % of control

c1ccc(C(c2ccccc2)[Si](c2ccccc2)(C(c2ccccc2)c2ccccc2)C(c2ccccc2)c2ccccc2)cc1
inactive: dose: 25.6 mg/kg/injection, schedule: Q04DX002 (ip), vehicle: saline with Tween-80 96 % of control | dose: 37.5 mg/kg/injection, schedule: Q01DX009 (ip), vehicle: Klucel (hydroxypropylcellulose) (HPC) 93 % of control | dose: 64.0 mg/kg/injection, schedule: Q04DX002 (ip), vehicle: saline with Tween-80 100 % of control | dose: 75.0 mg/kg/injection, schedule: Q01DX009 (ip), vehicle: Klucel (hydroxypropylcellulose) (HPC) 88 % of control | [2] 94 % of control | dose: 160.0 mg/kg/injection, schedule: Q04DX002 (ip), vehicle: saline with Tween-80 93 % of control | [3] 100 % of control | dose: 400.0 mg/kg/injection, schedule: Q04DX002 (ip), vehicle: saline with Tween-80 104 % of control | [4] 94 % of control
